{"source": "patent US20190246658A1", "about": "“METHODS OF HANDLING PAPAYA” (AGROFRESH INC., priority 2013, published 2019)", "key": {"[1]": {"tested_on": "Papayas ‘Golden’", "test": "Example 1: percentage of fruits with ideal internal pulp firmness (2.5-7.0 lbf)", "format": "in vivo, papaya", "settings": "100 ppb of MCP, ideal = between 2.5 and 7.0 lbf", "method": "(§1) Papayas ‘Golden’ were harvested in Linhares—Espírito Santo—Brazil. The harvested fruits were packed in MAP Bags and put in cardboard boxes.\n(§2) The appropriate weight of papayas was placed in each bag after harvest. Bags were placed in the same cardboard boxes used to export the fruits. Papayas then were cold stored at (11° C.) at the Laboratory.\n(§3) The Test Protocol that was used was as follows. 36 MAP bags were packed. Each bag held approximately 3.8 kg (8.4 lb) of papayas. One such bag was packed in each cardboard box. Total weight of papayas in MAP bags was approximately 137 kg. Approximately 91 kg of papayas were placed into cardboard boxes identical to those used for the MAP bags.\n(§4) The MAP-packaged papayas were packaged as follows: Nine fruits, approximately 3.8 kg were carefully placed into microperforated bags, and the bags were sealed by twisting the open side of the bag, folding down the twisted end, and placing a rubber band around the twisted and folded end of the bag.\n(§5) All papayas were kept at cold temperature (11° C.) during 27 days and after that the fruits (packed in MAP bags or not) were put in room temperature (22° C.) during 8 days.\n(§6) One day after harvest, when the papayas had around 25 lbf of average firmness, each treatment set was marked, placed in a hermetical chamber at cold temperature (11° C.). All chambers were of equal size and packed the same way. Treatment was for 12 hours. In the chambers for the 3 “MCP” treatment groups, at the beginning of the treatment period, SmartFresh™ were placed in the chamber. The amount of SmartFresh™ was chosen to achieve the indicated concentration of 1-methylcyclopropene in the atmosphere of the chamber.\n(§7) For the Pulp Firmness evaluation two measurements where done, one for External Firmness and another for Internal Firmness. For External Firmness, the papayas had the skin removed with a peeler and the pulp firmness was measured with a Firmness Texture Analyzer (FTA) with a probe of 8 mm. For Internal Firmness, the papayas were cut transversally and a measurement close to the center of the fruit was taken with the FTA.\nThe desirable internal pulp firmness for consumption of papayas is between 2.5 and 7.0 lbf. The percentage of fruits with internal pulp firmness between 2.5 and 7.0 lbf was calculated."}, "[2]": {"tested_on": "Papayas ‘Golden’", "test": "Example 2 (yellow stage): pulp firmness, external", "format": "in vivo, papaya", "settings": "for Pulp Firmness - External: 500 ppb of MCP", "method": "(§8) A similar test to Example 1 but papayas are tested during their yellow stage. Papayas ‘Golden’ were harvested in Linhares—Espírito Santo—Brazil. The fruits were packed in MAP Bags and put in cardboard boxes.\n(§9) The fruits were first left at room temperature during 3 days to reach yellow maturity stage.\n(§10) After that the appropriate weight of papayas was placed in each bag after harvest. Bags were placed in the same cardboard boxes used to export the fruits. Papayas then were cold stored at (11° C.) at the Laboratory.\nas §3, with “18” for “36”, “68” for “137”, “68” for “91”\nas §4\n(§11) All papayas were kept at cold temperature (11° C.) during 26 days and after that the fruits (packed in MAP bags or not) were put in room temperature (22° C.) during 8 days.\n(§12) After the 3 days for maturation at room temperature, when the papayas had around 5 lbf of average firmness, each treatment set was marked, placed in a hermetical chamber at cold temperature (11° C.). All chambers were of equal size and packed the same way. Treatment was for 12 hr. In the chambers for the 2 “MCP” treatment groups, at the beginning of the treatment period, SmartFresh™ were placed in the chamber. The amount of SmartFresh™ was chosen to achieve the indicated concentration of 1-methylcyclopropene in the atmosphere of the chamber.\n(§13) Evaluation for skin color and firmness was as follows. Day “zero” was the day the papayas were removed from the chamber and placed in storage.\nas §7, with “were” for “where”"}, "[3]": {"tested_on": "Papayas ‘Golden’", "test": "Example 2 (yellow stage): papaya skin color rating", "format": "in vivo", "settings": "for Skin color ratings: 500 ppb of MCP, scale 1 green to 5 yellow", "method": "as §8, §9, §10\nas §3, with “18” for “36”, “68” for “137”, “68” for “91”\nas §4, §11, §12, §13\nThe Papaya Skin Color was rated with the following scale: 1: green; 2: approximately 25%; 3: approximately 50% colored; 4: approximately 75% colored; 5: yellow."}, "[4]": {"tested_on": "Papayas ‘Golden’", "test": "Example 1: pulp firmness, external (FTA, 8 mm probe)", "format": "in vivo, papaya", "settings": "100 ppb of MCP", "method": "as §1, §2, §3, §4, §5, §6, §13, §7"}, "[5]": {"tested_on": "Papayas ‘Golden’", "test": "Example 1: pulp firmness, internal (FTA)", "format": "in vivo, papaya", "settings": "for Pulp Firmness - Internal: 100 ppb of MCP", "method": "as §1, §2, §3, §4, §5, §6, §13, §7"}, "[6]": {"settings": "MAP bag, 27 days at 11° C. then 0 days @ 22° C."}, "[7]": {"settings": "MAP bag, 27 days at 11° C. then 4 days @ 22° C."}, "[8]": {"settings": "MAP bag, 27 days at 11° C. then 8 days @ 22° C."}, "[9]": {"settings": "No Bag, 27 days at 11° C. then 0 days @ 22° C."}, "[10]": {"settings": "No Bag, 27 days at 11° C. then 4 days @ 22° C."}, "[11]": {"settings": "No Bag, 27 days at 11° C. then 8 days @ 22° C."}, "[12]": {"settings": "MAP bag, 26 days at 11° C. then 0 days @ 22° C."}, "[13]": {"settings": "MAP bag, 26 days at 11° C. then 4 days @ 22° C."}, "[14]": {"settings": "MAP bag, 26 days at 11° C. then 8 days @ 22° C."}, "[15]": {"settings": "No Bag, 26 days at 11° C. then 0 days @ 22° C."}, "[16]": {"settings": "No Bag, 26 days at 11° C. then 4 days @ 22° C."}, "[17]": {"settings": "No Bag, 26 days at 11° C. then 8 days @ 22° C."}}, "data": [{"smiles": "CC1=CC1", "note": "[MCP, 1-methylcyclopropene]", "values": [{"measurement": "Percentage of fruits with ideal internal pulp firmness", "setting": "[1]; [6]", "result": 52.38, "unit": "%"}, {"measurement": "Percentage of fruits with ideal internal pulp firmness", "setting": "[1]; [7]", "result": 44.44, "unit": "%"}, {"measurement": "Percentage of fruits with ideal internal pulp firmness", "setting": "[1]; [8]", "result": 13.88, "unit": "%"}, {"measurement": "Percentage of fruits with ideal internal pulp firmness", "setting": "[1]; [9]", "result": 1.19, "unit": "%"}, {"measurement": "Percentage of fruits with ideal internal pulp firmness", "setting": "[1]; [10]", "result": 11.11, "unit": "%"}, {"measurement": "Percentage of fruits with ideal internal pulp firmness", "setting": "[1]; [11]", "result": 58.33, "unit": "%"}, {"measurement": "external firmness during shelf-life, in words", "setting": "[2]; 1-MCP alone, compared to the present invention (1-MCP + MAP)", "result": "lower efficiency to maintain external firmness"}, {"measurement": "Pulp Firmness - External", "setting": "[2]; [12]", "result": 3.84, "unit": "lbf"}, {"measurement": "Pulp Firmness - External", "setting": "[2]; [13]", "result": 1.98, "unit": "lbf"}, {"measurement": "Pulp Firmness - External", "setting": "[2]; [14]", "result": 1.30, "unit": "lbf"}, {"measurement": "Pulp Firmness - External", "setting": "[2]; [15]", "result": 3.03, "unit": "lbf"}, {"measurement": "Pulp Firmness - External", "setting": "[2]; [16]", "result": 1.88, "unit": "lbf"}, {"measurement": "Pulp Firmness - External", "setting": "[2]; [17]", "result": 1.11, "unit": "lbf"}, {"measurement": "papayas color, in words", "setting": "[3]; 1-MCP alone (no MAP)", "result": "did not hold the papayas color"}, {"measurement": "Skin color ratings", "setting": "[3]; [12]", "result": 2.18}, {"measurement": "Skin color ratings", "setting": "[3]; [13]", "result": 3.62}, {"measurement": "Skin color ratings", "setting": "[3]; [14]", "result": 4.88}, {"measurement": "Skin color ratings", "setting": "[3]; [15]", "result": 2.70}, {"measurement": "Skin color ratings", "setting": "[3]; [16]", "result": 4.91}, {"measurement": "Skin color ratings", "setting": "[3]; [17]", "result": 5.00}, {"measurement": "Pulp Firmness - External", "setting": "[4]; [6]", "result": 17.1, "unit": "lbf"}, {"measurement": "Pulp Firmness - External", "setting": "[4]; [7]", "result": 17.0, "unit": "lbf"}, {"measurement": "Pulp Firmness - External", "setting": "[4]; [8]", "result": 6.2, "unit": "lbf"}, {"measurement": "Pulp Firmness - External", "setting": "[4]; [9]", "result": 25.0, "unit": "lbf"}, {"measurement": "Pulp Firmness - External", "setting": "[4]; [10]", "result": 23.4, "unit": "lbf"}, {"measurement": "Pulp Firmness - External", "setting": "[4]; [11]", "result": 7.8, "unit": "lbf"}, {"measurement": "internal firmness during shelf-life, in words", "setting": "[5]; 1-MCP alone (no MAP)", "result": "too high internal firmness"}, {"measurement": "Pulp Firmness - Internal", "setting": "[5]; [6]", "result": 3.3, "unit": "lbf"}, {"measurement": "Pulp Firmness - Internal", "setting": "[5]; [7]", "result": 3.2, "unit": "lbf"}, {"measurement": "Pulp Firmness - Internal", "setting": "[5]; [8]", "result": 1.5, "unit": "lbf"}, {"measurement": "Pulp Firmness - Internal", "setting": "[5]; [9]", "result": 16.9, "unit": "lbf"}, {"measurement": "Pulp Firmness - Internal", "setting": "[5]; [10]", "result": 12.2, "unit": "lbf"}, {"measurement": "Pulp Firmness - Internal", "setting": "[5]; [11]", "result": 3.2, "unit": "lbf"}]}]}
